Test results as given in publication PMC11546719, “Immune Modulatory Profile of the Pateamines PatA and Des-Methyl Des-Amino PatA” (International Journal of Molecular Sciences, 2024).

How the values were obtained:
[1] = tested on: Salmonella typhimurium strain TA100; assay: Ames MPF test, strain TA100; assay type: cell-based; details: TA100, with and without S9, 10-250 nM
Method: The Ames MPF 98/100 test (Xenometrix, Allschwil, Switzerland) was performed as recommended by the supplier and recently published. Briefly, two bacteria strains incapable of producing histidine (Salmonella typhimurium strains TA98 and TA100) were used. Liver homogenate S9 was applied to simulate the metabolic conversions of PatA and DMDA. After exposure to increasing concentrations of PatA (0, 10, 50, 250 nM), DMDA (0, 10, 50, 250 nM) or with positive controls (2 μg/mL for 2-NF (TA98), 2.5 μg/mL for 4-NQO (TA100), 63 μg/mL (TA100 with SF9) and 25 µg/mL (TA98 with SF9) for 2-AA), the cultures were diluted in pH indicator medium lacking histidine and incubated for two days. Cells that had undergone reversion to amino acid prototrophy grew into colonies and bacterial metabolism reduced the pH of the medium, changing the color of that well. Revertant colony numbers of each well were counted and related to the negative control (DMSO). The experiment was conducted once in triplicate. The Ames MPF calculation sheet provided by Xenometrix was used for data analysis. Fold induction over the baseline was calculated as the ratio of the mean number of positive wells to the baseline. The baseline was obtained by adding one standard deviation to the mean number of positive wells of the solvent control. Compounds with mutagenic potential were characterized by revertant numbers above the baseline.

M2 MdMs = assay: Polarization of MdMs to M2 MdMs (zombie staining, flow cytometry, ELISA/CBA); assay type: cell-based, human; details: for Inflammatory environment (inflammatory mediators in supernatant): ELISA or CBA; for Apoptosis (zombie staining): IL-4 polarization, 0.5-5 nM; for Effect on the release of inflammatory markers, M2 MdM: summary table
Method: The differentiation of human monocytes to macrophages (MdMs) was performed as previously described. Briefly, 0.5 × 10^6 CD14^+ cells/well were pretreated with different concentrations of PatA and DMDA or vehicle (DMSO) for 30 min. After pre-incubation, differentiation was initiated by the addition of 10 ng/mL GM-CSF for M1 MdMs or 50 ng/mL M-CSF for M2 MdMs and incubated for 7 days.
The polarization of MdMs to M1 or M2 MdMs was performed as previously described. M1 and M2 MdM polarization was conducted in separate experiments. Briefly, M1 MdMs were polarized in presence of PatA (0.5, 2.5, 5 nM), DMDA (0.5, 2.5, 5 nM) or vehicle (DMSO) with 20 ng/mL human IFN-γ for 48 h. M2 MdMs were polarized in presence of PatA (0.5, 2.5, 5 nM), DMDA (0.5, 2.5, 5 nM) or vehicle (DMSO) with 10 ng/mL human IL-4 for 24 h.
Surface marker analysis was performed as described previously. Briefly, 1.5–2 × 10^5 cells of each sample were blocked with human FcR Blocking Reagent (15 min, 4 °C). A Zombie Aqua™ Fixable Viability Kit (1:500 dilution, BioLegend, San Diego, CA, USA) was used according to the manufactory protocol to discriminate living and dead cells. Afterwards, samples were stained with a mixture of different surface marker antibodies (15 min, 4 °C) and measured with MACSQuant® Analyzer 10 flow cytometer. For M1-/M2-MdMs anti-CD86, anti-CD14, anti-HLA-DR, anti-CD206, anti-CD80, anti-TREM2 and anti-CD163 were used. For T cells, anti-CD69, anti-CD54, anti-CD49a, anti-CD18, anti-CD134, anti-CD154, anti-CD3 and anti-CD25 were analyzed. For B cells, anti-CD27, anti-CD19 and anti-CD38 were applied. For T cell and B cell proliferation assay, freshly isolated T and B cells were stained with CTV and detected using flow cytometry. Naïve B cells were characterized as CD19^+CD27^lowCD38^med, memory B cells as CD19^+CD27^med CD38^low and plasma cells as CD27^+CD38^+ cells. M1 MdMs and M2 MdMs cell population was gated using FSC/SSC channel. T cells were gated as CD3^+CD25^+ positive cells. The geometric mean of the fluorescent intensity was calculated using FlowJo software v10 (Treestar, Ashland, […], USA). Fold induction of surface marker expression was calculated using the DMSO-treated cells as the control.
For determination of cytokine concentrations in the supernatant of humane immune cells, cytometric bead array (BD Biosciences, Heidelberg, Germany) for IL-10, IL-17, IL-8, IL-6, IFN-γ and CCL2 was used. For the detection of CCL18, CCL17, IgG, IgA and PGE2, an ELISA was performed. The cytometric bead arrays and the ELISAs were performed according to the protocol of the supplier.

Calu-3 cell barrier = assay: Transport assay, Calu-3 cell barrier; assay type: in vitro ADME; details: for Permeability / transport rate across Calu-3 cell barrier (in words): 4 and 24 h, PatA, DMDA 5, 50, 100 nM, controls 200 µM
Method: The transport assay was achieved as described previously. Briefly, 1 × 10^5 CaCo-2 or 5 × 10^4 Calu-3 cells in 300 µL medium were seeded on 24-well ThinCerts (pre-coated with FCS for 60 min) and in the lower compartment, 1 mL culture medium per well was added. The Caco-2 cell barrier was generated over 20 days and the Calu-3 barrier was generated over 14 days. DMDA (0 nM, 5 nM, 50 nM, 100 nM), PatA (0 nM, 5 nM, 50 nM, 100 nM), 200 µM famotidine, 200 µM lucifer yellow or 200 µM carbamazepine diluted in medium was added to the apical compartment and incubated for 4 h or 24 h. The medium from the basolateral and apical compartment was collected and stored at −20 °C and analyzed using LC-MS/MS. To obtain the transport rate, the drug amount in the basolateral compartment at 4 h or 24 h was related to the drug amount in the apical compartment (0 h).
The detailed method for the analysis of DMDA, PatA, carbamazepine and famotidine using LC-MS/MS is described in the Supplementary Materials.

[2] = M2 MdMs, CD163low population, 24 h

| SMILES | Mutagenic potential (Ames test) [1] | CD80 surface marker expression (M2 MdMs; [2]) | CD206 surface marker expression (M2 MdMs; [2]) | Inflammatory environment (inflammatory mediators in supernatant) (M2 MdMs; M2 MdMs) | Apoptosis (zombie staining) (M2 MdMs; M2 MdMs, 24 h) | Effect on the release of inflammatory markers, M2 MdM (M2 MdMs) | Permeability / transport rate across Calu-3 cell barrier (in words) (Calu-3 cell barrier) | TREM2 surface marker expression (M2 MdMs; M2 MdMs, CD163low population, 24 h, 5 nM) | Transport rate with Calu-3 cell barrier (Calu-3 cell barrier; 100 nM, 24 h) [%] |
| --- | --- | --- | --- | --- | --- | --- | --- | --- | --- |
| CC(/C=C/C(C)=C/[C@@H]1Cc2nc(cs2)[C@@H](C)C[C@@H](N)CC(=O)O[C@@H](C)C/C(C)=C/C=C\C(=O)O1)=C\CN(C)C [PatA, pateamine A] | negative in all Ames mutagenic assays | induced the pro-inflammatory marker CD80 | reduced the anti-inflammatory marker CD206 | did not affect the inflammatory environment | did not induce apoptosis | No effect | no permeability was detected | – | – |
| CC(/C=C/C(C)=C/[C@@H]1Cc2nc(cs2)CCCCC(=O)O[C@@H](C)C/C(C)=C/C=C\C(=O)O1)=C\CN(C)C [DMDA, des-methyl des-amino pateamine A] | negative in all Ames mutagenic assays | – | – | did not affect the inflammatory environment | did not induce apoptosis | No effect | exhibited low permeability | increased the anti-inflammatory surface marker TREM2 | ~14 |
